The numbers were not newly measured in PMC6332596 (Journal of Hematology & Oncology, 2019), which cites them from elsewhere.

On the set-up of this data set: method as in PMID 25933833, PMID 21131552. The settings on record: compared with chiauranib; cited from earlier work.

On to `Cc1cc(Nc2cc(N3CCN(C)CC3)nc(/C=C/c3ccccc3)n2)n[nH]1` [ENMD-2076], for which the “DLTs in phase I trials” value was “more DLTs, such as pancreatic disease and hypertension, fatigue, cholecystitis, and QTc prolonged”.
Turning to `Nc1ncc(-c2cnn(CCO)c2)c2scc(-c3ccc(NC(=O)Nc4cccc(F)c4)cc3)c12` [Ilorasertib], the “DLTs in phase I trials” value is “more DLTs, such as pancreatic disease and hypertension, fatigue, cholecystitis, and QTc prolonged”.
